System: Detoxification protein genes
Assay: DNA chip mRNA expression in yeast, detoxification protein genes (Table 8)
Assay type: cell-based, Saccharomyces cerevisiae S288C
Outline: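 Value is the scanned fluorescence intensity ratio of exposed versus chemical-free cells. Log-phase S288C yeast in YPD at 25° C. received one toxic substance for two hours, dosed to slow growth without killing; Cy3/Cy5-labeled cDNA from oligo-dT-purified mRNA was hybridized to a whole-genome chip at 65° C.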

For `COc1cc(CNC(=O)CCCCC=CC(C)C)ccc1O` [(12), 8-methyl-N-vanillyl-6-nonenamide], the “The level of expressed mRNA in the presence of chemical substance/The level of expressed mRNA in the absence of chemical substance” value (yeast gene YBR244W) was 0.5, the “The level of expressed mRNA in the presence of chemical substance/The level of expressed mRNA in the absence of chemical substance” value (yeast gene YBR293W) was 1.0 and the “The level of expressed mRNA in the presence of chemical substance/The level of expressed mRNA in the absence of chemical substance” value (yeast gene YCL035C) was 1.5. The “The level of expressed mRNA in the presence of chemical substance/The level of expressed mRNA in the absence of chemical substance” value (yeast gene YCL069W) was 0.9, the “The level of expressed mRNA in the presence of chemical substance/The level of expressed mRNA in the absence of chemical substance” value (yeast gene YCR083W) was 1.1 and the “The level of expressed mRNA in the presence of chemical substance/The level of expressed mRNA in the absence of chemical substance” value (yeast gene YDL100C) was 1.5. The “The level of expressed mRNA in the presence of chemical substance/The level of expressed mRNA in the absence of chemical substance” value (yeast gene YDL168W) was 0.6, the “The level of expressed mRNA in the presence of chemical substance/The level of expressed mRNA in the absence of chemical substance” value (yeast gene YDR256C) was 0.8 and the “The level of expressed mRNA in the presence of chemical substance/The level of expressed mRNA in the absence of chemical substance” value (yeast gene YDR453C) was 0.9. For the same compound, the “The level of expressed mRNA in the presence of chemical substance/The level of expressed mRNA in the absence of chemical substance” value (yeast gene YDR513W) was 0.9, the “The level of expressed mRNA in the presence of chemical substance/The level of expressed mRNA in the absence of chemical substance” value (yeast gene YDR538W) was 0.7 and the “The level of expressed mRNA in the presence of chemical substance/The level of expressed mRNA in the absence of chemical substance” value (yeast gene YEL027W) was 0.9. For the same compound, the “The level of expressed mRNA in the presence of chemical substance/The level of expressed mRNA in the absence of chemical substance” value (yeast gene YEL065W) was 1.7, the “The level of expressed mRNA in the presence of chemical substance/The level of expressed mRNA in the absence of chemical substance” value (yeast gene YER185W) was 1.1 and the “The level of expressed mRNA in the presence of chemical substance/The level of expressed mRNA in the absence of chemical substance” value (yeast gene YFL050C) was 0.9. The “The level of expressed mRNA in the presence of chemical substance/The level of expressed mRNA in the absence of chemical substance” value (yeast gene YGL013C) was 1.0, the “The level of expressed mRNA in the presence of chemical substance/The level of expressed mRNA in the absence of chemical substance” value (yeast gene YGL254W) was 1.2 and the “The level of expressed mRNA in the presence of chemical substance/The level of expressed mRNA in the absence of chemical substance” value (yeast gene YGR088W) was 1.1. The “The level of expressed mRNA in the presence of chemical substance/The level of expressed mRNA in the absence of chemical substance” value (yeast gene YGR138C) was 0.6, the “The level of expressed mRNA in the presence of chemical substance/The level of expressed mRNA in the absence of chemical substance” value (yeast gene YGR197C) was 1.2 and the “The level of expressed mRNA in the presence of chemical substance/The level of expressed mRNA in the absence of chemical substance” value (yeast gene YGR209C) was 0.9. The “The level of expressed mRNA in the presence of chemical substance/The level of expressed mRNA in the absence of chemical substance” value (yeast gene YGR224W) was 0.6, the “The level of expressed mRNA in the presence of chemical substance/The level of expressed mRNA in the absence of chemical substance” value (yeast gene YHL040C) was 2.0 and the “The level of expressed mRNA in the presence of chemical substance/The level of expressed mRNA in the absence of chemical substance” value (yeast gene YHL047C) was 2.6. For the same compound, the “The level of expressed mRNA in the presence of chemical substance/The level of expressed mRNA in the absence of chemical substance” value (yeast gene YHR008C) was 0.7, the “The level of expressed mRNA in the presence of chemical substance/The level of expressed mRNA in the absence of chemical substance” value (yeast gene YHR048W) was 0.9 and the “The level of expressed mRNA in the presence of chemical substance/The level of expressed mRNA in the absence of chemical substance” value (yeast gene YHR053C) was 1.1. The “The level of expressed mRNA in the presence of chemical substance/The level of expressed mRNA in the absence of chemical substance” value (yeast gene YHR055C) was 1.2, the “The level of expressed mRNA in the presence of chemical substance/The level of expressed mRNA in the absence of chemical substance” value (yeast gene YIR002C) was 1.3 and the “The level of expressed mRNA in the presence of chemical substance/The level of expressed mRNA in the absence of chemical substance” value (yeast gene YIR038C) was 1.1. The “The level of expressed mRNA in the presence of chemical substance/The level of expressed mRNA in the absence of chemical substance” value (yeast gene YJL101C) was 0.7, the “The level of expressed mRNA in the presence of chemical substance/The level of expressed mRNA in the absence of chemical substance” value (yeast gene YJR104C) was 0.9 and the “The level of expressed mRNA in the presence of chemical substance/The level of expressed mRNA in the absence of chemical substance” value (yeast gene YKL026C) was 1.0. The “The level of expressed mRNA in the presence of chemical substance/The level of expressed mRNA in the absence of chemical substance” value (yeast gene YKL064W) was 0.7, the “The level of expressed mRNA in the presence of chemical substance/The level of expressed mRNA in the absence of chemical substance” value (yeast gene YKR066C) was 0.9 and the “The level of expressed mRNA in the presence of chemical substance/The level of expressed mRNA in the absence of chemical substance” value (yeast gene YKR105C) was 0.8. For the same compound, the “The level of expressed mRNA in the presence of chemical substance/The level of expressed mRNA in the absence of chemical substance” value (yeast gene YKR106W) was 0.8, the “The level of expressed mRNA in the presence of chemical substance/The level of expressed mRNA in the absence of chemical substance” value (yeast gene YLL028W) was 1.3 and the “The level of expressed mRNA in the presence of chemical substance/The level of expressed mRNA in the absence of chemical substance” value (yeast gene YLL057C) was 0.7. The “The level of expressed mRNA in the presence of chemical substance/The level of expressed mRNA in the absence of chemical substance” value (yeast gene YLL060C) was 1.1, the “The level of expressed mRNA in the presence of chemical substance/The level of expressed mRNA in the absence of chemical substance” value (yeast gene YLR043C) was 0.8 and the “The level of expressed mRNA in the presence of chemical substance/The level of expressed mRNA in the absence of chemical substance” value (yeast gene YLR046C) was 0.8. For the same compound, the “The level of expressed mRNA in the presence of chemical substance/The level of expressed mRNA in the absence of chemical substance” value (yeast gene YML028W) was 1.6, the “The level of expressed mRNA in the presence of chemical substance/The level of expressed mRNA in the absence of chemical substance” value (yeast gene YML116W) was 0.5 and the “The level of expressed mRNA in the presence of chemical substance/The level of expressed mRNA in the absence of chemical substance” value (yeast gene YMR015C) was 0.9. For the same compound, the “The level of expressed mRNA in the presence of chemical substance/The level of expressed mRNA in the absence of chemical substance” value (yeast gene YMR038C) was 0.9, the “The level of expressed mRNA in the presence of chemical substance/The level of expressed mRNA in the absence of chemical substance” value (yeast gene YNL239W) was 1.5 and the “The level of expressed mRNA in the presence of chemical substance/The level of expressed mRNA in the absence of chemical substance” value (yeast gene YNL241C) was 2.0. For the same compound, the “The level of expressed mRNA in the presence of chemical substance/The level of expressed mRNA in the absence of chemical substance” value (yeast gene YNL259C) was 0.7, the “The level of expressed mRNA in the presence of chemical substance/The level of expressed mRNA in the absence of chemical substance” value (yeast gene YOL158C) was 0.9 and the “The level of expressed mRNA in the presence of chemical substance/The level of expressed mRNA in the absence of chemical substance” value (yeast gene YOR031W) was 0.8. The “The level of expressed mRNA in the presence of chemical substance/The level of expressed mRNA in the absence of chemical substance” value (yeast gene YOR153W) was 4.0, the “The level of expressed mRNA in the presence of chemical substance/The level of expressed mRNA in the absence of chemical substance” value (yeast gene YOR247W) was 0.6 and the “The level of expressed mRNA in the presence of chemical substance/The level of expressed mRNA in the absence of chemical substance” value (yeast gene YOR251C) was 0.9. The “The level of expressed mRNA in the presence of chemical substance/The level of expressed mRNA in the absence of chemical substance” value (yeast gene YOR273C) was 0.8, the “The level of expressed mRNA in the presence of chemical substance/The level of expressed mRNA in the absence of chemical substance” value (yeast gene YPL163C) was 0.9 and the “The level of expressed mRNA in the presence of chemical substance/The level of expressed mRNA in the absence of chemical substance” value (yeast gene YPR200C) was 0.4.

— patent publication US8192962B2, “Processes for detecting toxic substances” (Daikin Industries, Ltd., priority 2001, dated 2012)
